Test results as given in patent US9248119B2, “Modified release dosage forms of xanthine oxidoreductase inhibitor or xanthine oxidase inhibitors” (Takeda Pharmaceuticals U.S.A., Inc., priority 2010, dated 2016).
Like-named read-outs stand apart in the source and are kept apart here.

How the values were obtained:
[1] = Bioavailability of febuxostat released in various locations of the gastrointestinal tract (site of absorption study); assay type: in vivo, human; settings: humans
Protocol: Subjects all received regimens in a crossover fashion according to a randomization schedule. Extra periods (up to 2 per subject) were added where subject dose release issues required repeating a regimen. There was a washout interval of at least 7 days between the dose in a period and the next dose in the subsequent period.
The method utilizes protein precipitation with acetonitrile of a 100-μL aliquot of plasma, with a lower limit of detection of 10.0 ng/mL.
Pharmacokinetic parameters for febuxostat were estimated using standard noncompartmental methods. Calculations were performed using the WinNonlin Pro Version 5.2 (Mountain View, Calif., USA). The descriptive statistics for pharmacokinetic parameter estimates were computed. […] The subjects who had improper capsule release were allowed to repeat up to two extra periods after their scheduled sequence had ended. For ANOVA purposes, the missing or incomplete data from the periods with improper capsule release was replaced by the data from the corresponding repeated periods using the originally planned period for that regimen.

clinical [2] = settings: human, in vivo; for Vd/F: Vss/F
Protocol: The development of the previously described embodiments resulted from a long drug development process. […] The study was also designed to assess the pharmacokinetic and pharmacodynamic profiles of multiple daily oral doses over a range of doses and ranges, including both once-daily and twice-daily administration.
(§1) Samples were analyzed by high performance liquid chromatography.

[3] = Phase 1 single-dose 5-way crossover study of four extended release and one immediate release febuxostat formulation; assay type: in vivo, human; settings: all subjects, all formulations
Text: This examples describes the results of a phase 1, single-center, open-label, randomized, 5-way crossover study. Thirty-five adult male and female subjects aged 18 to 55 years, inclusive, in good health, were selected to participate in this study.

xanthine oxidase = xanthine oxidase (Homo sapiens, UniProt P47989)
uric acid = assay: Pharmacodynamics in Phase 1 dose escalation study: uric acid levels; assay type: in vivo, human
Protocol: as §1

[4] = Absorption of febuxostat from various regions of the gastro-intestinal tract in rats; assay type: in vivo, rat
Text: The pharmacokinetic data obtained in the clinical trial referenced above was subsequently used to develop estimated plasma profiles for various febuxostat formulations, including extended release matrix tablets, two-pulse febuxostat formulations, and three-pulse febuxostat formulations. The estimated extended release formulation data was based on a matrix formulation incorporating one or more polymers, and the estimated two-pulse and three-pulse formulation data was based on a formulation incorporating two or more types of beads with differing release profiles. This information and methodology is discussed in Example 2. Additionally, as part of the development process for an extended release febuxostat formulation, various sites of absorption were investigated to determine the optimal physiologic sites of drug absorption for an extended release febuxostat formulation. In early pre-clinical studies, absorption of febuxostat from various regions of the gastro-intestinal tract was studied in rats. […] To guide development of a dosage form that provided the desired plasma concentration-time profile, a site of absorption study was conducted in humans.

albumin = biological target: T1, albumin (Homo sapiens, UniProt P02768); assay: Binding to albumin in the blood; assay type: in vitro ADME
T1 construct: from tissue; host or cells: blood / plasma

clinical [5] = settings: human, plasma, po
[6] = cited from earlier work; for fu (free fraction in plasma): in %
[7] = normal patients, 14C, nominal 1 μg/mL
[8] = patients with severe renal impairment

Chain of xanthine oxidase (P47989 whole entry): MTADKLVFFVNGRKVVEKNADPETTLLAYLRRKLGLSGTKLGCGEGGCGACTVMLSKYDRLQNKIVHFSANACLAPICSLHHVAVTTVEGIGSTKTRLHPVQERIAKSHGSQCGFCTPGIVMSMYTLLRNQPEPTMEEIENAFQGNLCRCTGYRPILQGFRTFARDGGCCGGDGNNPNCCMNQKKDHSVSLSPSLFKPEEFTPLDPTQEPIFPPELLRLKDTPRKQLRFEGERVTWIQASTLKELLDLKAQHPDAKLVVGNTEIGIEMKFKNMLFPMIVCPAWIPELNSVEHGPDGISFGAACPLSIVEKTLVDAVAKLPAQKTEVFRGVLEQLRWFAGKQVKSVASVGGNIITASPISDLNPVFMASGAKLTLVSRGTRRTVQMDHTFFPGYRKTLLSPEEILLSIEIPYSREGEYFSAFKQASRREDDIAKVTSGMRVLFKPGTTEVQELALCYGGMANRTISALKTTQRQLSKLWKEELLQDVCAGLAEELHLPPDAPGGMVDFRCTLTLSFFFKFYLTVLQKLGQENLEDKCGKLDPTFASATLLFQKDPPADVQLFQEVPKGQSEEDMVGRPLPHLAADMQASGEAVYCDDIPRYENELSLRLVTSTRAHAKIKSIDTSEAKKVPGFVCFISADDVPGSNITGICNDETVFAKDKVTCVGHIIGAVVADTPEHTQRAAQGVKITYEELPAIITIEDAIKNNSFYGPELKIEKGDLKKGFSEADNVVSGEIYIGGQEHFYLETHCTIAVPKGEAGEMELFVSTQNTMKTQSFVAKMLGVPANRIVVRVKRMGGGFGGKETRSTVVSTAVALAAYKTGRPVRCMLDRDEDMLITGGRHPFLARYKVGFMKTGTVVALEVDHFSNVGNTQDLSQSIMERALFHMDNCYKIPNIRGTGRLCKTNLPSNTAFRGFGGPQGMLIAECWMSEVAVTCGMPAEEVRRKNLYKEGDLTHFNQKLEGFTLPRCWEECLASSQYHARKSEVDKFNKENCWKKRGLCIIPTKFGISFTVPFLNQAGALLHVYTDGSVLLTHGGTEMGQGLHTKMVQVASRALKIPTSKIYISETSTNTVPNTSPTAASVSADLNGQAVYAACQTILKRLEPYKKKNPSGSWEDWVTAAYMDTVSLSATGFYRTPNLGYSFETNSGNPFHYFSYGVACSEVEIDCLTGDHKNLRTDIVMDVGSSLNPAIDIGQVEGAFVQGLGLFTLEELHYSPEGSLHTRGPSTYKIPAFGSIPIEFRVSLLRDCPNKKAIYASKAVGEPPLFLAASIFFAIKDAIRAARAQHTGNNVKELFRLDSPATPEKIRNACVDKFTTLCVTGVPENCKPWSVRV
T1 sequence (P02768 25-609): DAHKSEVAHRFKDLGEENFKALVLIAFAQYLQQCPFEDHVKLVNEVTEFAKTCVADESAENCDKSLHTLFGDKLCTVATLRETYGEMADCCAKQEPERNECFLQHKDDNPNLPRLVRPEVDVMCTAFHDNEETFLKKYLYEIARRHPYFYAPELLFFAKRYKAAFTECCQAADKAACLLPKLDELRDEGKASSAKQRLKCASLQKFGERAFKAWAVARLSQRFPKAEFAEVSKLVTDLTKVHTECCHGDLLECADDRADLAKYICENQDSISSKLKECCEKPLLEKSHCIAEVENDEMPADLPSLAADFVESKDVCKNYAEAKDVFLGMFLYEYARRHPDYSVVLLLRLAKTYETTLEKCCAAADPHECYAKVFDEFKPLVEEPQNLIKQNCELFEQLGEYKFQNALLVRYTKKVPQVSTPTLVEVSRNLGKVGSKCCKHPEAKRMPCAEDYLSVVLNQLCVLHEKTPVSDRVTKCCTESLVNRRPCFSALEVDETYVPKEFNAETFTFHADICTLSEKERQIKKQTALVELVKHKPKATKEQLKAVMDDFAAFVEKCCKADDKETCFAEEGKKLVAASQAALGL

In the case of `Cc1nc(-c2ccc(OCC(C)C)c(C#N)c2)sc1C(=O)O` [Febuxostat, 2-[3-cyano-4-(2-methylpropoxy)phenyl]-4-methylthiazole-5-carboxylic acid], the “absorption in the colon compared to immediate release, proximal intestine and distal intestine” value [1] was “approximately 40%”, the Vd (clinical [2]) was ~0.7 L/kg and the half-life (clinical [2]) was ~6 h. It also gave a Cmax (clinical [2]; 10 mg) of 399.5 ng/mL, a Tmax (clinical [2]; 10 mg) of 0.70 h and a Vss/F (clinical [2]; 10 mg) of 42.7 L. The AUC (clinical [2]; 10 mg, AUC (AUC24)) was 950 ng·h/mL, the AUC(0-inf) (clinical [2]; 10 mg) was 727 ng·h/mL and the Cmax (clinical [2]; 10 mg, Cmax) was 336 ng/mL. The Vd/F (clinical [2]; 10 mg) was 38.2 L, the Tmax (clinical [2]; 10 mg, tmax) was 0.99 h and the Cmax (clinical [2]; 20 mg) was 934.2 ng/mL. It also gave a Vss/F (clinical [2]; 20 mg) of 33.3 L, an AUC (clinical [2]; 20 mg, AUC (AUC24)) of 2110 ng·h/mL and an AUC(0-inf) (clinical [2]; 20 mg) of 2180 ng·h/mL. It also gave a Cmax (clinical [2]; 20 mg, Cmax) of 1110 ng/mL, a Vd/F (clinical [2]; 20 mg) of 29.2 L and a Tmax (clinical [2]; 20 mg, tmax) of 1.06 h. The “AUC (AUC12)” value (clinical [2]; 30 mg) was 3308.3 ng·h/mL, the “AUC (AUC∞)” value (clinical [2]; 30 mg) was 2816.9 ng·h/mL and the AUC (clinical [2]; 30 mg, AUC (AUC12)) was 2910 ng·h/mL. The AUC (clinical [2]; 30 mg, AUC (AUC24)) was 2570 ng·h/mL, the AUC(0-inf) (clinical [2]; 30 mg) was 2550 ng·h/mL and the Cmax (clinical [2]; 30 mg, Cmax) was 1120 ng/mL. For the same compound, the Cmax (clinical [2]; 40 mg) was 1822.1 ng/mL, the Vss/F (clinical [2]; 40 mg) was 49.5 L and the AUC (clinical [2]; 40 mg, AUC (AUC24)) was 4300 ng·h/mL. The AUC(0-inf) (clinical [2]; 40 mg) was 3980 ng·h/mL, the Cmax (clinical [2]; 40 mg, Cmax) was 1530 ng/mL and the Vd/F (clinical [2]; 40 mg) was 48.7 L. For the same compound, the Tmax (clinical [2]; 40 mg, tmax) was 1.44 h, the Cmax (clinical [2]; 50 mg) was 1791.7 ng/mL and the Vss/F (clinical [2]; 50 mg) was 59.1 L. It also gave an AUC (clinical [2]; 50 mg, AUC (AUC24)) of 4380 ng·h/mL, an AUC(0-inf) (clinical [2]; 50 mg) of 4410 ng·h/mL and a Cmax (clinical [2]; 50 mg, Cmax) of 1970 ng/mL. It also gave a Vd/F (clinical [2]; 50 mg) of 43.2 L, a Tmax (clinical [2]; 50 mg, tmax) of 0.78 h and a Cmax (clinical [2]; 70 mg) of 2689.9 ng/mL. The Vss/F (clinical [2]; 70 mg) was 54.1 L, the AUC (clinical [2]; 70 mg, AUC (AUC24)) was 6950 ng·h/mL and the AUC(0-inf) (clinical [2]; 70 mg) was 6930 ng·h/mL. It also gave a Cmax (clinical [2]; 70 mg, Cmax) of 3080 ng/mL, a Vd/F (clinical [2]; 70 mg) of 41.6 L and a Tmax (clinical [2]; 70 mg, tmax) of 1 h. It also gave a Cmax (clinical [2]; 90 mg) of 4058.9 ng/mL, a Vss/F (clinical [2]; 90 mg) of 63.7 L and an AUC (clinical [2]; 90 mg, AUC (AUC24)) of 9650 ng·h/mL. The AUC(0-inf) (clinical [2]; 90 mg) was 9090 ng·h/mL, the Cmax (clinical [2]; 90 mg, Cmax) was 3480 ng/mL and the Vd/F (clinical [2]; 90 mg) was 56.7 L. For the same compound, the Tmax (clinical [2]; 90 mg, tmax) was 0.95 h, the Cmax (clinical [2]; 120 mg) was 5307.6 ng/mL and the Vss/F (clinical [2]; 120 mg) was 55.1 L. The AUC (clinical [2]; 120 mg, AUC (AUC24)) was 12000 ng·h/mL, the AUC(0-inf) (clinical [2]; 120 mg) was 11300 ng·h/mL and the Cmax (clinical [2]; 120 mg, Cmax) was 4470 ng/mL. For the same compound, the Vd/F (clinical [2]; 120 mg) was 57.8 L, the Tmax (clinical [2]; 120 mg, tmax) was 1 h and the Cmax (clinical [2]; 160 mg) was 8771.1 ng/mL. It also gave a Vss/F (clinical [2]; 160 mg) of 36.1 L, an AUC (clinical [2]; 160 mg, AUC (AUC24)) of 22300 ng·h/mL and an AUC(0-inf) (clinical [2]; 160 mg) of 20700 ng·h/mL. It also gave a Cmax (clinical [2]; 160 mg, Cmax) of 7300 ng/mL, a Vd/F (clinical [2]; 160 mg) of 40.7 L and a Tmax (clinical [2]; 160 mg, tmax) of 0.75 h. The Cmax (clinical [2]; 180 mg) was 8048.8 ng/mL, the Tmax (clinical [2]; 180 mg) was 1.00 h and the Vss/F (clinical [2]; 180 mg) was 45.6 L. The AUC (clinical [2]; 180 mg, AUC (AUC24)) was 24000 ng·h/mL, the AUC(0-inf) (clinical [2]; 180 mg) was 25600 ng·h/mL and the Cmax (clinical [2]; 180 mg, Cmax) was 8400 ng/mL. The Vd/F (clinical [2]; 180 mg) was 54.6 L, the Tmax (clinical [2]; 180 mg, tmax) was 1.07 h and the Cmax (clinical [2]; 240 mg) was 11263 ng/mL. It also gave a Vss/F (clinical [2]; 240 mg) of 31.3 L, an AUC (clinical [2]; 240 mg, AUC (AUC24)) of 35000 ng·h/mL and an AUC(0-inf) (clinical [2]; 240 mg) of 28300 ng·h/mL. It also gave a Cmax (clinical [2]; 240 mg, Cmax) of 8390 ng/mL, a Vd/F (clinical [2]; 240 mg) of 54.6 L and a Tmax (clinical [2]; 240 mg, tmax) of 1.06 h. The “oral clearance from the plasma” value (clinical [2]; po) was 7.3 to 15.1 L/h, the Tmax (clinical [2]; po, tmax) was ~1 h and the “absorption lag-time after oral dosing” value [3] was “no absorption lag-time”. For the same compound, the “time with at least 80% inhibition of xanthine oxidase” value (xanthine oxidase; 120 mg immediate release dosage forms, other studies) was ~14 h, the “time with at least 80% inhibition of xanthine oxidase” value (xanthine oxidase; 240 mg immediate release dosage forms, further studies) was “about 22 hours” and the “lowering uric acid levels” value (uric acid; 30 mg twice daily compared with once daily 120 mg) was “as effective”. The “serum uric acid concentrations” value (uric acid; IR, once a day, as little as 10 mg, healthy subjects) was “lowers concentrations of uric acid”, the “inhibition of uric acid levels” value (uric acid; in vivo febuxostat concentrations at or above 100 ng/mL (0.1 μg/mL)) was ≥ 80% and the “absorption from the colonic region” value [4] was “very poor”. The “bound to albumin in the blood” value (albumin) was ~99.3%, the Cmax (clinical [5]; 120 mg) was ~3900 ng/mL and the Cmax (clinical [5]; 240 mg) was 10200 ng/mL. The “percent free fraction of febuxostat in plasma” value ([6]; male, female, younger and elderly group of subjects) was 0.7±0.1%, the percent fu [6, 7] was 0.9±0.2% and the “fu (free fraction in plasma)” value [6, 7] was 0.9±0.2. For the same compound, the percent fu [6, 8] was 1.2±0.2% and the “fu (free fraction in plasma)” value [6, 8] was 1.2±0.2.
